Eight substances from patent US11193114B2, “Immunogenic peptides for use in the prevention and/or treatment of infectious diseases, autoimmune diseases, immune responses to allofactors, allergic diseases, tumors, graft rejection and immune responses against viral vectors used for gene therapy or gene vaccination” (IMNATE SARL, priority 2010, dated 2021) can be followed below.

One test concerns EG7 tumor cells. Nature of the test: Apoptosis of EG7 tumor cells by CD4+ NKT cell lines from peptide-immunized mice (Annexin V / 7-AAD). The settings on record: EG7 cells cultured 18 h at ratio 1/1 with NKT cell lines from mice immunized with the peptide. Type of test: cell-based, mouse (C57BL/6, H-2b). On the procedure:
C57BL/6 mice (n=6) were immunized by four subcutaneous injections of 50 μg of peptide of SEQ ID NO: 3 in alum carried out at one-week interval.
Such peptide contains a CD1d-restricted NKT cell epitope derived from ovalbumin and a thioreductase motif in flanking residues. A control group (n=6) of mice received physiological serum in alum instead of peptide. Ten days after the last immunization the mice were sacrificed and spleen CD4+ T cells were prepared by magnetic cell sorting. Such cells were stimulated twice with the immunizing peptide in vitro before assessing their activation state as measured by the production of IL-4 and IFN-gamma.
CD4+ NKT cell lines were then assayed in vitro for their capacity to kill EG7 tumor cells. EG7 tumor cells (H-2b) are derived from a thymoma transduced with an ova construct. A CD1d restricted ova epitope is presented by such cells, which is known to be insufficient to trigger NKT activation and tumor cell killing.
EG7 cells were labeled at membrane level with 1 μM DiOC18 (3,3′ dioctadecycloxacarbocyanine perchlorate from Invitrogen). […] After 18 h, cells were harvested and stained for Annexin V and 7-AAD following manufacturer's instructions (Apoptosis Detection kit; BD Biosciences) and analysed on a FACSCantoll flow cytometer (BD Biosciences).

Test [1] deals with Factor VIII specific CD4+ T cells. Kind of test: Activation (IL-4, IFN-gamma production) of Factor VIII specific CD4+ T cells from mice immunized with peptide, then injected with human factor VIII. The test is classed as in vivo, BALB/c Factor VIII KO mice. Particulars: mice immunized 4 times with 50 μg peptide vs control group without peptide; spleen CD4+ T cells restimulated in vitro. How it is done: BALB/c Factor VIII KO mice (group A) were immunized 4 times at 1 week interval with 50 μg of peptide 2196, which contains a CD1d-restricted NKT cell epitope and a C-XX-C (SEQ ID NO: 14) thioreductase motif within flanking residues (SEQ ID NO: 1).
Human factor VIII was then injected by the subcutaneous route using 10 IU per injection on 5 occasions separated by one week. Ten days after the last immunization the mice were sacrificed and spleen CD4+ T cells were prepared by magnetic cell sorting. Such cells were stimulated twice with the immunizing peptide and FVIII in vitro before assessing their activation state as measured by the production of IL-4 and IFN-gamma. […] The results (FIG. 1) show a 10-fold reduction of IL-4 production by Factor VIII specific CD4+ T cells obtained from mice immunized with the peptide as compared to the control group, and a 7-fold reduction in the production of IFN-gamma. Results are shown as means+SEM.

The test system of test [2] is Der p I induced asthma in BALB/c mice. Nature of the test: Prevention of Der p I induced allergic asthma by peptide immunization. The test is classed as in vivo. The settings on record: 4 injections of 50 μg peptide; Der p I nasal instillation 10 days after last immunization. The source says: Allergens from the house dust mite, D. pteronyssinus, are frequently involved in allergic asthma. Der p I is the main allergen of D. pteronyssinus. The sequence of Der p I contains a CD1d binding motif corresponding to amino acid sequence 38 to 44. A peptide of sequence WAFSGVAATES (SEQ ID NO: 12) is produced by synthesis as well as its counterpart containing a thioreductase motif Thus, peptide of CGPCGGFSGVAATES (SEQ ID NO: 8) contains a thioreductase motif (underlined) and a linker of 2 glycines between the motif and the CD1d-binding motif.
Allergic asthma can be induced in BALB/c mice by nasal instillations of 100 μg Der p I administered on 3 consecutive days. Asthma is characterized by bronchial hyperreactivity and attraction of eosinophil infiltrates into the lung.
BALB/c mice are immunized by 4 injections of 50 μg of peptides of either SEQ ID8 or peptide in natural sequence as a control. Der p I is administered by nasal instillation 10 days after the last immunization.

In a further test the test system is Ad5 viral particles. Nature of the test: Anti-Ad5 IgG antibody response after peptide immunization and Ad5 injection (direct binding ELISA). Particulars: four sc injections of 50 μg peptide in alum, then 2 IV Ad5 injections; serum 10 days after last Ad5 injection. The test is classed as in vivo, C57BL/6 mice. On the procedure: C57BL/6 mice (n=6) were immunized by four subcutaneous injections of 50 μg of peptide of SEQ ID NO: 2 in alum carried out at one-week interval.
Such peptide contains a CD1d-restricted NKT cell epitope of hex on protein of adenovirus (Ad5) and a thioreductase motif in flanking residues. A control group (n=6) of mice received physiological serum in alum instead of peptide. All mice then received 2 injections of 109 Ad5 viral particles by the IV route, separated by I week. Ten days after the last Ad5 injection, mice were bled and the concentration of total IgG antibodies to Ad5 particles was measured in a direct binding ELISA Briefly, Ad5 viral particles were insolubilized on polystyrene plates, followed by washing and incubation with a dilution of mouse serum. After a second washing, the binding of mouse anti-Ad5 antibodies was detected by addition of a goat antiserum to mouse IgG. […] Results are given in arbitrary units as means+SEM.

The subject of test [3] is EAE (experimental autoimmune encephalomyelitis) in C57BL/6 mice. Kind of test: Prevention of EAE by pre-immunization with MOG peptide. Type of test: in vivo. The settings on record: four sc immunizations (50 μg) before disease induction with MOG 35-55. On the procedure:
MOG contains a sequence which binds to CD1d and activates NKT cells. Thus, peptide of sequence PHFLRVPCWKI (SEQ ID NO: 10) is produced by synthesis and a thioreductase-containing peptide of sequence CHGCGGFLRVPCWKI (peptide of SEQ ID NO: 6, in which the thioreductase motif is underlined and a linker of 2 glycines between the motif and the CD1d-binding motif).
Groups of C57BL/6 mice are immunized four times subcutaneously (50 μg) with peptide of SEQ ID6 or, as a control, with peptide in natural sequence. Ten days after the last immunization, all mice, including a group of naive, non-immunized animals, are induced into disease by subcutaneous injection of 100 μg MOG 35-55 peptide/400 μg Mycobacterium butyricum in CFA and ip injection of 300 ng Bordetella pertussis in NaCl. At day +2, a second injection of B. pertussis is given.
Signs of EAE are followed over time.

A further test has as its system NOD mice. Kind of test: Prevention of spontaneous insulin-dependent diabetes in NOD mice with GAD65 derived peptides. The test is classed as in vivo. Particulars: female NOD mice, 4 sc injections from the age of 4 weeks. An excerpt: GAD65 contains amino acid sequences with the capacity to bind to CD1d. Thus, the sequence PQHTNVCFWFV (SEQ ID NO: 11), corresponding to amino acids 501 to 507 of GAD65, is produced by synthesis, as well as its counterpart encompassing a thioreductase motif within flanking residues: peptide of CHGCGGHTNVCFWFV (SEQ ID NO: 7) (with the thioreductase motif underlined and a linker of 2 glycines between the motif and the CD1d binding motif).
Female NOD mice are immunized from the age of 4 weeks by 4 subcutaneous injections of peptides of either SEQ ID7 or natural sequence, and glycaemia is followed in each of these groups, by comparison to a non-immunized group.

Test [4] relates to BALB/c-derived ALK+ tumor cell line (VAC). Nature of the test: Killing of VAC ALK+ tumor cells by NKT cells stimulated with ALK peptide (Annexin-V binding by FACS). The test is classed as cell-based, BALB/c mice. The settings on record: VAC cells co-cultured with BALB/c NKT cells stimulated with the peptide; mean of triplicates. On the procedure:
Co-culture with a BALB/c-derived ALK+tumor cell line (VAC) was carried out as described above. Apoptosis of tumor cells was measured by evaluating Annexin-V binding by FACS.
On the technique in general: Flow cytometry measures light scatter and fluorescence of single cells or particles in a stream.

For another test, the system named is R113 tumor cells. Nature of the test: Killing of R113 tumor cells by NKT cells stimulated with ALK peptide (Annexin V binding). Type of test: cell-based, C57BL/6 mice. The settings on record: 20 h co-culture with NKT cells stimulated with the peptide. On the procedure:
CD4 T cells (C57BL/6, H-2b background) obtained from the spleen of naive mice were stimulated four times with autologous dendritic cells loaded with a CD1d-restricted NKT cell epitope of ALK, to which a thioreductase motif of the C-XX-C (SEQ ID NO: 14) format was added within flanking residues. (Peptide of CHGCGGWLQIVTWWGPGS (SEQ ID NO: 5) (with thioreductase motif underlined and 2 glycines used as linker between the motif and the CD1d-restricted epitope)).
As NKT cells have per se a cytolytic activity, we included cells which were stimulated in parallel experiments by exposure to the same CD1d-restricted NKT epitope in natural sequence, without thioredox motif (WLQIVTWWGPGS) (SEQ ID NO: 9).
Ten days after the last stimulation, CD4 T cells were washed and added to cell culture microplates containing 104 Rl13 tum or cells at a 2 to 1 ratio (CD4 to tum or cells). Rl13 is a tumor B cell line obtained from C57BL/6 mice, which constitutively expresses ALK.
After 20 h of co-culture, Rl13 tumor cells were evaluated for Annexin V binding used as marker of cell apoptosis.

For “CGH CGG FDKLPGF (CGHCGGFDKLPGF) [SEQ ID3]”, the “apoptosis of EG7 tumor cells” value in the test on EG7 tumor cells is “are induced into apoptosis”.

With “CGH CGG FTN MFA TWS PSK (CGHCGGFTNMFATWSPSK) [peptide 2196]”, in test [1], the “reduction in the production of IFN-gamma by Factor VIII specific CD4+ T cells” value stood at 7 fold and the “reduction of IL-4 production by Factor VIII specific CD4+ T cells” value amounted to 10 fold.

Consider CGPCGGFSGVAATES [SEQ ID8], for which, in test [2], the “airway reactivity to inhalation of methacholine” value was “do not develop airway reactivity to inhalation of methacholine” and the “lung infiltration with eosinophils” value is on record as “do not show lung infiltration with eosinophils”.

“CHG CGG FIGLMYY (CHGCGGFIGLMYY) [SEQ ID NO: 2]”: the “total IgG antibodies to Ad5 particles” value with Ad5 viral particles is recorded as “did not produce significant amounts of antibodies”.

Regarding “CHGCGGFLRVPCWKI [SEQ ID6, thioreductase-containing MOG peptide]”, in test [3], the “signs of EAE” value is “do not develop EAE”.

As for CHGCGGHTNVCFWFV [SEQ ID7], the glycaemia result in the test with NOD mice is recorded as “prevented from hyperglycaemia”.

Regarding “CHGCGGWLQIVTWWGPGS [peptide of sequence 1]”, the “tumor cell death (Annexin-V binding)” value in test [4] was found to be 25%. In the test with R113 tumor cells, the “increase in tumor cell death as compared to tumor cells cultured alone” value is reported as 4.5 fold. In the test on R113 tumor cells (2 to 1 ratio, mean of triplicates), the “tumor cell death (Annexin V binding)” value turned out to be 18%.

As for “PQHTNVCFWFV [SEQ ID NO: 11, reference compound]”, in the test with NOD mice, the glycaemia result is reported as “develop hyperglycaemia starting after the 14th week”.
